Laboratory results taken from patent US7235377B2, “Global test of the hemostatic system” (The University of Vermont and State Agriculture College, priority 2003, dated 2007).

Legend:
[1] = test system: whole blood; assay: Tissue factor initiated whole blood assay, thrombin (TAT) at 20 minutes, historical record of treated individuals/blood; set-up: species or system human
[2] = INR of individuals on coumadin therapy; assay type: in vivo, human
Protocol: Thrombin is illustrated for the group of 13 healthy individuals (♦/⋄, column 1), with the 6-month time period for subject 10 (⋄) illustrated. […] An historical record of whole blood data for individuals on coumadin therapy (●/∘) is seen in column 3. […] Individuals with hemophilia A; or induced hemophilia B; with (Δ) and without (▴) in vitro replacement were reevaluated for their 20 minute time point and are seen in column 4. Two individuals with factor XI deficiency (▪) at low tissue factor are shown in column 5. Thrombin generation from blood treated with anti platelet IIbIIIa therapeutics (*), ReoPro and Integrellin are represented in column 6.

[3] = one individual on coumadin therapy over a 6 month time period

SMILES: CC(=O)CC(c1ccccc1)c1c(O)c2ccccc2oc1=O (stereo not drawn) [Coumadin]
- TAT level, Mean ([1]; mean per group, repeated measures on individuals averaged, 20 min): 273.5
- mean thrombin [1, 3]: 166.6 ± 121.3 nM
- variation of thrombin levels [1, 3]: approximately 325 nM
- thrombin levels (range) ([1]; one individual on coumadin therapy, stable INR, studied 10 times over 6 months, 20 min): 9.3 to 334.7 nM
- INR ([2]; group of 7 individuals stably anticoagulated on coumadin, studied once): 2.3±0.5
- INR ([2]; one individual on coumadin therapy studied 10 times over 6 months): 2.1±0.4
